Results as given in PubChem BioAssay (NCI).
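How tested: cells in 96-well plates exposed to compound for 48 hours at five concentrations. GI50: concentration for 50% inhibition of growth. TGI marks complete inhibition of growth.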

What was measured:
Test in all cases: growth of human tumour cells (NCI), 48 h
[1] = system: 786-0 renal
[2] = system: A498 renal
[3] = system: A549 NSCLC
[4] = system: ACHN renal
[5] = system: BT-549 breast
[6] = system: CAKI-1 renal
[7] = system: COLO 205 colon
[8] = system: DU-145 prostate
[9] = system: EKVX NSCLC
[10] = system: HCC-2998 colon
[11] = system: HCT-116 colon
[12] = system: HCT-15 colon
[13] = system: HL-60(TB) leukemia
[14] = system: HOP-62 NSCLC
[15] = system: HOP-92 NSCLC
[16] = system: HS 578T breast
[17] = system: HT29 colon
[18] = system: IGROV1 ovarian
[19] = system: KM12 colon
[20] = system: LOX IMVI melanoma
[21] = system: M14 melanoma
[22] = system: MALME-3M melanoma
[23] = system: MCF7 breast
[24] = system: MDA-MB-435
[25] = system: NCI-H226 lung

COc1ccc(Nc2nccc(Nc3ccc4[nH]ncc4c3)n2)cc1
GI50 [1]: 1.74 µM | TGI [1]: 4.75 µM | GI50 [2]: 4.62 µM | TGI [2]: 17.2 µM | GI50 [3]: 3.46 µM | TGI [3]: 14.3 µM | GI50 [4]: 2.89 µM | TGI [4]: 11.7 µM | GI50 [5]: 3.22 µM | TGI [5]: 12.1 µM | GI50 [6]: 2.22 µM | TGI [6]: 14.9 µM | GI50 [7]: 2.59 µM | TGI [7]: 7.21 µM | GI50 [8]: 3.31 µM | TGI [8]: 12.9 µM | GI50 [9]: 5 µM | TGI [9]: 17.9 µM | GI50 [10]: 2.88 µM | TGI [10]: 8.05 µM | GI50 [11]: 2.06 µM | TGI [11]: 4.91 µM | GI50 [12]: 1.9 µM | TGI [12]: 4.28 µM | GI50 [13]: 2.05 µM | TGI [13]: 4.67 µM | GI50 [14]: 2.27 µM | TGI [14]: 5.75 µM | GI50 [15]: 3.13 µM | TGI [15]: 12.9 µM | GI50 [16]: 5.02 µM | TGI [16]: > 100 µM | GI50 [17]: 2.36 µM | TGI [17]: 8.33 µM | GI50 [18]: 3.36 µM | TGI [18]: 25.1 µM | GI50 [19]: 3.45 µM | TGI [19]: 24.2 µM | GI50 [20]: 1.92 µM | TGI [20]: 3.87 µM | GI50 [21]: 2.39 µM | TGI [21]: 6.15 µM | GI50 [22]: 3.27 µM | TGI [22]: 15.9 µM | GI50 [23]: 2.05 µM | TGI [23]: 5.36 µM | GI50 [24]: 2.1 µM | TGI [24]: 5.7 µM | GI50 [25]: 2.3 µM | TGI [25]: 5.77 µM
